PMC10041537, “Molecular origins of mutational spectra produced by the environmental carcinogen N-nitrosodimethylamine and SN1 chemotherapeutic agents” (NAR Cancer, 2023)
Where “and” joins values, the source holds several entries; their conditions need not be identical. Equal values may be shown once.

Key:
gpt reporter gene [1] = format: in vivo, C57BL/6J gptΔ transgenic mice
Protocol: (§1) Most experiments utilized C57BL/6J gptΔ transgenic mice ([49],[50]), a gift from T. Nohmi. Some experiments used RaDR^R/R;gpt^g/g;Mgmt^−/− mice, which were created by crossing RaDR^R/R;gpt^g/gmice ([37]) with Mgmt^−/− mice ([51]). NDMA was synthesized and characterized as previously described ([52]) (Fig. S1). […] The first dose (3.5 mg/kg in 10 μl) was administered at 8 days of age, and the second dose (7 mg/kg in 20 μl) was administered at 15 days of age. Vehicle treated mice were administered equivalent volumes of saline. Mice were euthanized at ten weeks post-injection by CO2 inhalation. Both male and female mice were used in all experimental groups (n = 5) in all mouse experiments.
The gptΔ assay is the technology traditionally used with the gptΔ mouse to probe for small mutations in the 459 bp gpt transgene, of which approximately 160 copies exist in the mouse diploid genome ([50]). The gpt gene, which is not expressed in the mammalian cells, is contained in a λ-EG10 viral cassette that can be recovered ex vivo through a lambda packaging reaction.
The λ-EG10 phage was packaged in vitro from genomic DNA using a Transpack packaging extract (Agilent Technologies) and then transfected into E. coli YG6020 expressing Cre-recombinase, generating a 6.4 kb plasmid carrying the gpt and chloramphenicol acetyltransferase genes. These bacteria were cultured on selective media containing chloramphenicol (25 μg/ml, Sigma-Aldrich) and 6-TG (25 μg/ml, Sigma-Aldrich) or chloramphenicol alone. 6-TG resistance was confirmed by regrowth of colonies on plates containing chloramphenicol and 6-TG. The mutant frequency of each group was calculated (ratio of total 6-TG-resistant colonies to the average of chloramphenicol resistant colonies). The samples were processed and analyzed in a blinded fashion.
In this study, the gptΔ assay was performed on several tissues isolated from the mouse experiments. Specifically, the liver, kidneys, and lungs were collected at ten weeks following the second NDMA injection, flash frozen in liquid nitrogen, and stored at −80°C until analysis. Genomic DNA was extracted from ∼25 mg of liver tissue, one kidney, and whole lungs using the RecoverEase DNA Isolation Kit (Agilent Technologies).

gpt reporter gene [2] = format: in vivo, RaDR^R/R;gpt^g/g;Mgmt^−/− mice; conditions: liver, NDMA-treated Mgmt−/− vs NDMA-treated WT
Protocol: as §1
The gptΔ assay is the technology traditionally used with the gptΔ mouse to probe for small mutations in the 459 bp gpt transgene, of which approximately 160 copies exist in the mouse diploid genome ([50]). […]
The λ-EG10 phage was packaged in vitro from genomic DNA using a Transpack packaging extract (Agilent Technologies) and then transfected into E. coli YG6020 expressing Cre-recombinase, generating a 6.4 kb plasmid carrying the gpt and chloramphenicol acetyltransferase genes. […] The mutant frequency of each group was calculated (ratio of total 6-TG-resistant colonies to the average of chloramphenicol resistant colonies). The samples were processed and analyzed in a blinded fashion. […]

mouse genome = test: Duplex sequencing, high-resolution mutational spectra and pLOGO of liver and lung of NDMA-treated wild-type mice; format: in vivo, gptΔ C57BL/6J mice
Protocol: as §1
To determine the identity of mutations and the sequence contexts in which they occur, we utilized a form of error-corrected sequencing called duplex sequencing (DS). Previously, we described how DS can be used directly on genomic samples derived from the gptΔ mouse to yield high-resolution mutational spectra in an unbiased (unselected) manner ([49]). Unlike the traditional gptΔ assay, DS evaluates the mutations throughout the entire 6382 bp transgenic region (which contains the gpt gene), without the need for a phenotypic selection. In the present work, 6.4 kb gpt-containing plasmids from gptΔ mouse livers and cell culture were isolated using a Miniprep Kit (Qiagen) following instructions of the manufacturer. Approximately 6 μg of plasmid DNA was diluted in 1× TE buffer-low EDTA, pH 8 (Thermo Scientific), transferred to a microTUBE AFA Fiber Pre-Slit Snap-Cap (Covaris) and sonicated using a Covaris E220 Focused-ultrasonicator. The following program was used to obtain 300–350 bp fragments: peak incident power = 140 W, duty factor = 10%, cycles per burst = 200, treatment time = 80 s, temperature = 4–7°C. DS libraries for gptΔ C57BL/6J mice and MEFs were prepared using the NEBNext Ultra II DNA Library Prep (E7103, NEB) or as described in Chawanthayatham et al. ([49]) and sequenced on a NextSeq500 or NovaSeq 6000 Illumina platform by using a 150 bp paired-end protocol (MIT BioMicro Center). DS libraries for the gptΔ mouse lungs and Mgmt^−/− mice were prepared using an input of 1 μg or 500 ng genomic DNA, respectively, using a TwinStrand Biosciences, Inc. Mouse Mutagenesis Kit according to the manufacturer's protocol. This kit uses probes that hybridize to 20 genomic regions, each 2.4 kb long. The genomic coordinates are provided in Supplementary Table S1. These probes were purposely selected to map in intronic and intergenic regions, to avoid selection bias. The libraries were sequenced on an Illumina NovaSeq 6000 DNA sequencer on an S4 flow cell using a 150 bp paired-end protocol (MIT BioMicro Center).
For each sample, the two fastq files generated by the Illumina sequencer were converted into an unaligned bam file, using Picard Tools. The resulting bam file was processed using UnifiedConsensusMaker.py (version 3.0) as available from the Kennedy Lab at University of Washington (https://github.com/Kennedy-Lab-UW/Duplex-Sequencing). Briefly, this program queries the molecular tags on each read and assembles them into families (strands with the same tag). These are subsequently collapsed into single-strand consensus sequences (SSCS). Then, the software identifies the SSCS corresponding to the complementary strand; these are grouped together as a double-strand consensus sequence (DCS). Unpaired SSCSs were flagged and ignored for the rest of the analysis. Sequence information was accepted only when the information from the two complementary DNA strands was in perfect agreement. The DCSs (as fastq files) were subsequently aligned to the target region (6382 nt in the λ-EG10 genome) using Burrows-Wheeler aligner. Unmapped reads were filtered out. Finally, the properly aligned DCS reads were trimmed (bases 1–8 and 120–137) and collapsed into a pileup file using SamTools. […]

[3] = C at -6 relative to G→A mutation, liver, WT mice

Question: Which “elevated mutation frequency, kidney” value (gpt reporter gene [1]; kidney, 10 weeks after neonatal NDMA 10.5 mg/kg total i.p., vs controls) does the source give for `CN(C)N=O` [NDMA, N-nitrosodimethylamine] here?
Answer: Its value is roughly 2 fold.

Question: And the “change in mutant frequencies, kidney, males and females” value (gpt reporter gene [1]; kidneys vs controls, only males significantly increased (P = 0.0079))?
Answer: Its value is “approximate doubling”.

Question: What about the “elevated mutation frequency, liver” value (gpt reporter gene [1]; liver, 10 weeks after neonatal NDMA 10.5 mg/kg total i.p., vs controls) of the same compound?
Answer: Its value is roughly 35 fold.

Question: What about the “increase in mutant frequency, liver, females” value (gpt reporter gene [1]; livers of females vs controls, 10 weeks post-exposure, P = 0.0079) of the same compound?
Answer: The value was roughly 45 fold.

Question: And the “increase in mutant frequency, liver, males” value (gpt reporter gene [1]; livers of males vs controls, 10 weeks post-exposure, P = 0.0079)?
Answer: The value was roughly 30 fold.

Question: And the “elevated mutation frequency, lung” value (gpt reporter gene [1]; lung, 10 weeks after neonatal NDMA 10.5 mg/kg total i.p., vs controls)?
Answer: The value was ~4 fold and > 4 fold.

Question: And the “enhanced mutant frequency in Mgmt−/− vs wild-type mice, females” value (gpt reporter gene [2]; females)?
Answer: The value was 3 fold.

Question: What about the “enhanced mutant frequency in Mgmt−/− vs wild-type mice, males” value (gpt reporter gene [2]; males) of the same compound?
Answer: The value was 4 fold.

Question: What about the “pLOGO Frequency (%)” value (mouse genome; A at 1, lung, WT mice) of the same compound?
Answer: The value was 32.2%.

Question: And the “pLOGO Value (log-odds binomial probability)” value (shortened to “pLOGO Value”) (mouse genome; A at 1, lung, WT mice)?
Answer: Its value is 5.89.

Question: What about the “pLOGO Frequency (%)” value (mouse genome; A at 2, lung, WT mice) of the same compound?
Answer: Its value is 32.0%.

Question: What about the “pLOGO Value” value (mouse genome; A at 2, lung, WT mice) of the same compound?
Answer: Its value is 4.51.

Question: What about the “pLOGO Frequency (%)” value (mouse genome; A at 3, liver, WT mice) of the same compound?
Answer: The value was 28.4%.

Question: What about the “pLOGO Value” value (mouse genome; A at 3, liver, WT mice) of the same compound?
Answer: Its value is 4.00.

Question: What about the “pLOGO Frequency (%)” value (mouse genome; A at -1, liver, WT mice) of the same compound?
Answer: The value was 30.9%.

Question: And the “pLOGO Value” value (mouse genome; A at -1, liver, WT mice)?
Answer: The value was 52.74.

Question: What about the “pLOGO Frequency (%)” value (mouse genome; A at -1, lung, WT mice) of the same compound?
Answer: The value was 45.9%.

Question: What about the “pLOGO Value” value (mouse genome; A at -1, lung, WT mice) of the same compound?
Answer: The value was 37.22.

Question: What about the “pLOGO Frequency (%)” value (mouse genome; A at -2, lung, WT mice) of the same compound?
Answer: The value was 34.3%.

Question: What about the “pLOGO Value” value (mouse genome; A at -2, lung, WT mice) of the same compound?
Answer: Its value is 6.29.

Question: What about the “pLOGO Frequency (%)” value (mouse genome; C at 1, liver, WT mice) of the same compound?
Answer: Its value is 38.4%.

Question: And the “pLOGO Value” value (mouse genome; C at 1, liver, WT mice)?
Answer: Its value is 27.34.

Question: And the “pLOGO Frequency (%)” value (mouse genome; C at 4, liver, WT mice)?
Answer: The value was 26.0%.

Question: And the “pLOGO Value” value (mouse genome; C at 4, liver, WT mice)?
Answer: The value was 6.07.

Question: And the “pLOGO Frequency (%)” value (mouse genome; C at -3, liver, WT mice)?
Answer: The value was 31.4%.

Question: And the “pLOGO Value” value (mouse genome; C at -3, liver, WT mice)?
Answer: The value was 22.96.

Question: And the “pLOGO Frequency (%)” value (mouse genome; C at -5, liver, WT mice)?
Answer: The value was 26.7%.

Question: What about the “pLOGO Value” value (mouse genome; C at -5, liver, WT mice) of the same compound?
Answer: Its value is 4.79.

Question: And the “pLOGO Frequency (%)” value (mouse genome; [3])?
Answer: Its value is 28.0%.

Question: And the “pLOGO Value” value (mouse genome; [3])?
Answer: Its value is 3.68.

Question: And the “pLOGO Frequency (%)” value (mouse genome; G at -1, liver, WT mice)?
Answer: Its value is 47.4%.

Question: What about the “pLOGO Value” value (mouse genome; G at -1, liver, WT mice) of the same compound?
Answer: Its value is 193.23.

Question: What about the “pLOGO Frequency (%)” value (mouse genome; G at -1, lung, WT mice) of the same compound?
Answer: Its value is 39.2%.

Question: And the “pLOGO Value” value (mouse genome; G at -1, lung, WT mice)?
Answer: The value was 64.57.

Question: What about the “pLOGO Frequency (%)” value (mouse genome; T at 1, liver, WT mice) of the same compound?
Answer: Its value is 23.8%.

Question: And the “pLOGO Value” value (mouse genome; T at 1, liver, WT mice)?
Answer: The value was 4.97.

Question: What about the “pLOGO Frequency (%)” value (mouse genome; T at 1, lung, WT mice) of the same compound?
Answer: The value was 29.1%.

Question: What about the “pLOGO Value” value (mouse genome; T at 1, lung, WT mice) of the same compound?
Answer: Its value is 10.31.

Question: And the “sequence context dependency of GC→AT mutations” value (mouse genome; WT mice, Pu = purine, N = any base)?
Answer: The value was 5’-PuGN-3’.

Question: What about the “AT→GC mutations, proportion of total number of mutations” value (mouse genome; WT mice, after background subtraction) of the same compound?
Answer: The value was 4.6%.

Question: And the “dominant mutation type of mutational spectrum” value (mouse genome; liver and lung of WT mice, 10 weeks post NDMA)?
Answer: The value was “GC→AT transition mutations”.
